# Test results: paper PMC4167698, “Fatty Acid Esters of Phloridzin Induce Apoptosis of Human Liver Cancer Cells through Altered Gene Expression” (PLoS ONE, 2014)
# Assays:
# [1] = test system: normal human hepatocytes (HP-F); assay: MTS cell viability assay, normal human hepatocytes; type: cell-based; conditions: 24 h
# Experimental: (§1) Cell viability was determined by using the MTS assay. In brief, HepG2 cells (5×10^3 cells/100 µL/well), MDA-MB-231 (5×10^3 cells/100 µL/well), THP-1 (25×10^3/100 µL/well), normal human and rat hepatocytes (1×10^4 cells/100 µL/well) were plated in triplicate, in a 96 well sterile flat bottom tissue culture plates. […] Thereby, cells were exposed to various concentrations (0.1, 1, 10, 25, 50, 75, 100 µM) of each treatment. Controls consist of cells with media containing DMSO (<0.5%), test blank wells contained the test compound in media with no cells and blank wells contained media with no cells. After additional 3, 6, 12, 18 or 24 h, 20 µL of the MTS reagent in combination with the electron coupling agent, phenazine methosulfate were added to the wells and cells were incubated in a humidified incubator for 3 h. Absorbance at 490 nm (OD490) was measured by using a Flurostar Optima microplate reader (BMG Labtech, Cary, NC, USA) to obtain the number of viable cells relative to the control population. Percentage of viability of the test compound treated cells are expressed as percentage compared to control (<0.5% DMSO). […] The selective index (SI) of the fatty acid esters of phloridzin is defined as the ratio of cytotoxicity (EC50 values) on normal HP-F cells to solid cancer HepG2, MDA-MB-231 cells (SI = EC50 on HP-F cells/EC50 on solid cancer cells). Samples with SI values greater than three were considered to have high selectivity towards cancer cells.
# THP-1 cells = assay: MTS cell proliferation assay, THP-1; type: cell-based, human; conditions: for EC50: MTS
# Experimental: as §1
# MDA-MB-231 cells = assay: MTS cell proliferation assay, MDA-MB-231; type: cell-based, human; conditions: for EC50: MTS
# Experimental: as §1
# HepG2 cells [2] = assay: MTS cell proliferation assay, HepG2; type: cell-based, human; conditions: for EC50: MTS
# Experimental: as §1
# HepG2 cells [3] = assay: Human cancer drug targets RT2 profiler PCR array; type: cell-based
# Experimental: Total RNA extraction was performed using Arum Total RNA minikit (Bio-Rad, Hercules, CA, USA). RNA concentration and purity was determined by measuring the absorbance using a NanoDrop (NanoDrop Technologies, Wilmington, DE, USA). RNA integrity was assessed by formaldehyde agarose gel electrophoresis. RNA (400 ng) was used to synthesize cDNA using RT^2 First Strand kit (SABiosciences, Frederick, MD, USA). RT^2 RNA QC PCR arrays (SABiosciences, Frederick, MD, USA) was used to assess the quality of cDNA samples before characterization with the human cancer drug targets RT^2 profiler PCR array (SABiosciences, Frederick, MD, USA). Gene expression profiles of 84 genes were investigated using the human cancer drug targets RT^2 profiler PCR array (PAHS-507ZD) on a Bio-Rad CFX Connect (Bio-Rad, Hercules, CA, USA) using RT^2 real-time SYBR green PCR master mix (SABiosciences, Frederick, MD, USA). […] Reproducibility was maintained by using three biological replicates from three individual experiments.
# [4] = 84-gene array, vs vehicle control
structure (smiles),measurement,setting,value
"CCCCC/C=C\C/C=C\CCCCCCCC(=O)O [Linoleic acid, linoleic acid]",EC50,[1]; Hepatocyte,> 100 µM
same,EC50,"THP-1 cells; Homo sapiens, THP-1, 3 h",> 100 µM
same,EC50,"THP-1 cells; Homo sapiens, THP-1, 6 h",> 100 µM
same,EC50,"THP-1 cells; Homo sapiens, THP-1, 12 h",> 100 µM
same,EC50,"THP-1 cells; Homo sapiens, THP-1, 18 h",> 100 µM
same,EC50,"THP-1 cells; Homo sapiens, THP-1, 24 h",> 100 µM
same,EC50,"MDA-MB-231 cells; Homo sapiens, MDA-MB-231, 3 h",> 100 µM
same,EC50,"MDA-MB-231 cells; Homo sapiens, MDA-MB-231, 6 h",> 100 µM
same,EC50,"MDA-MB-231 cells; Homo sapiens, MDA-MB-231, 12 h",> 100 µM
same,EC50,"MDA-MB-231 cells; Homo sapiens, MDA-MB-231, 18 h",> 100 µM
same,EC50,"MDA-MB-231 cells; Homo sapiens, MDA-MB-231, 24 h",> 100 µM
same,EC50,"HepG2 cells [2]; Homo sapiens, HepG2, 3 h",> 100 µM
same,EC50,"HepG2 cells [2]; Homo sapiens, HepG2, 6 h",> 100 µM
same,EC50,"HepG2 cells [2]; Homo sapiens, HepG2, 12 h",> 100 µM
same,EC50,"HepG2 cells [2]; Homo sapiens, HepG2, 18 h",> 100 µM
same,EC50,"HepG2 cells [2]; Homo sapiens, HepG2, 24 h",> 100 µM
"CC/C=C\C/C=C\C/C=C\C/C=C\C/C=C\C/C=C\CCC(=O)OC[C@H]1O[C@@H](Oc2cc(O)cc(O)c2C(=O)CCc2ccc(O)cc2)[C@H](O)[C@@H](O)[C@@H]1O [Pz-DHA ester, DHA ester of Pz]",EC50,[1],> 100 µM
same,SI (selective index),"THP-1 cells; EC50 of HP-F cells/EC50 on THP-1, 24 h",21.3
same,EC50,"THP-1 cells; THP-1, 3 h",65.8 ± 5.2 µM
same,EC50,"THP-1 cells; THP-1, 6 h",49.5 ± 3.8 µM
same,EC50,"THP-1 cells; THP-1, 12 h",42.7 ± 3 µM
same,EC50,"THP-1 cells; THP-1, 18 h",35.8 ± 2.8 µM
same,EC50,"THP-1 cells; THP-1, 24 h",27.3 ± 1.2 µM
same,number of genes down-regulated (more than two-fold),HepG2 cells [3]; [4],41 genes
same,number of genes unaffected,HepG2 cells [3]; [4],35 genes
same,number of genes up-regulated (more than two-fold),HepG2 cells [3]; [4],8 genes
same,Fold change of gene expression relative to control: BCL2,"HepG2 cells [3]; Apoptosis gene, RT-PCR array",−2.8 fold
same,Fold change of gene expression relative to control: AKT1,HepG2 cells [3]; RT-PCR array,−6.1 fold
same,Fold change of gene expression relative to control: AKT2,HepG2 cells [3]; RT-PCR array,−2.8 fold
same,Fold change of gene expression relative to control: AURKB,HepG2 cells [3]; RT-PCR array,−2.0 fold
same,Fold change of gene expression relative to control: CDK2,HepG2 cells [3]; RT-PCR array,−2.0 fold
same,Fold change of gene expression relative to control: CDK9,HepG2 cells [3]; RT-PCR array,−2.1 fold
same,Fold change of gene expression relative to control: EGFR,HepG2 cells [3]; RT-PCR array,−8.9 fold
same,Fold change of gene expression relative to control: ERBB2,HepG2 cells [3]; RT-PCR array,−5.7 fold
same,Fold change of gene expression relative to control: ERBB3,HepG2 cells [3]; RT-PCR array,−6.1 fold
same,Fold change of gene expression relative to control: FLT1,HepG2 cells [3]; RT-PCR array,16.5 fold
same,Fold change of gene expression relative to control: GRB2,HepG2 cells [3]; RT-PCR array,−8.6 fold
same,Fold change of gene expression relative to control: HDAC1,HepG2 cells [3]; RT-PCR array,−2.6 fold
same,Fold change of gene expression relative to control: HDAC4,HepG2 cells [3]; RT-PCR array,−4.1 fold
same,Fold change of gene expression relative to control: HDAC6,HepG2 cells [3]; RT-PCR array,−5.4 fold
same,Fold change of gene expression relative to control: HDAC7,HepG2 cells [3]; RT-PCR array,−6.0 fold
same,Fold change of gene expression relative to control: HDAC11,HepG2 cells [3]; RT-PCR array,−20.1 fold
same,Fold change of gene expression relative to control: IGF1R,HepG2 cells [3]; RT-PCR array,−4.2 fold
same,Fold change of gene expression relative to control: IGF2,HepG2 cells [3]; RT-PCR array,−2.3 fold
same,Fold change of gene expression relative to control: IRF5,HepG2 cells [3]; RT-PCR array,−2.3 fold
same,Fold change of gene expression relative to control: KDR,HepG2 cells [3]; RT-PCR array,−2.8 fold
same,Fold change of gene expression relative to control: KRAS,HepG2 cells [3]; RT-PCR array,−4.0 fold
same,Fold change of gene expression relative to control: MDM4,HepG2 cells [3]; RT-PCR array,−2.1 fold
same,Fold change of gene expression relative to control: NF−κB,HepG2 cells [3]; RT-PCR array,−4.3 fold
same,Fold change of gene expression relative to control: PARP1,HepG2 cells [3]; RT-PCR array,−5.4 fold
same,Fold change of gene expression relative to control: PDGFRA,HepG2 cells [3]; RT-PCR array,−2.8 fold
same,Fold change of gene expression relative to control: PDGFRB,HepG2 cells [3]; RT-PCR array,−16.8 fold
same,Fold change of gene expression relative to control: PIK3C2A,HepG2 cells [3]; RT-PCR array,−2.2 fold
same,Fold change of gene expression relative to control: PLK1,HepG2 cells [3]; RT-PCR array,−2.9 fold
same,Fold change of gene expression relative to control: PRKCA,HepG2 cells [3]; RT-PCR array,−8.1 fold
same,Fold change of gene expression relative to control: PRKCD,HepG2 cells [3]; RT-PCR array,−2.1 fold
same,Fold change of gene expression relative to control: PRKCE,HepG2 cells [3]; RT-PCR array,−5.6 fold
same,Fold change of gene expression relative to control: TERT,HepG2 cells [3]; RT-PCR array,−5.6 fold
same,Fold change of gene expression relative to control: TOP2A,HepG2 cells [3]; RT-PCR array,−2.7 fold
same,Fold change of gene expression relative to control: TOP2B,HepG2 cells [3]; RT-PCR array,−2.3 fold
same,Fold change of gene expression relative to control: TP53,HepG2 cells [3]; RT-PCR array,−7.4 fold
same,Fold change of gene expression relative to control: mTOR,HepG2 cells [3]; RT-PCR array,−3.6 fold
same,Fold change of gene expression relative to control: FLT1,"HepG2 cells [3]; RT-PCR array, listed as Phloridzin-DHA",+16.5 fold
same,SI (selective index),"MDA-MB-231 cells; EC50 of HP-F cells/EC50 on MDA-MB-231, 24 h",10.5
same,EC50,"MDA-MB-231 cells; MDA-MB-231, 3 h",132 ± 9.9 µM
same,EC50,"MDA-MB-231 cells; MDA-MB-231, 6 h",83.7 ± 7.5 µM
same,EC50,"MDA-MB-231 cells; MDA-MB-231, 12 h",70.2 ± 6.1 µM
same,EC50,"MDA-MB-231 cells; MDA-MB-231, 18 h",62.6 ± 5.1 µM
same,EC50,"MDA-MB-231 cells; MDA-MB-231, 24 h",55.5 ± 4.5 µM
same,SI (selective index),"HepG2 cells [2]; EC50 of HP-F cells/EC50 on HepG2, 24 h",11.2
same,EC50,"HepG2 cells [2]; HepG2, 3 h",76.9 ± 5.8 µM
same,EC50,"HepG2 cells [2]; HepG2, 6 h",64.4 ± 5.9 µM
same,EC50,"HepG2 cells [2]; HepG2, 12 h",56.2 ± 4.9 µM
same,EC50,"HepG2 cells [2]; HepG2, 18 h",54.2 ± 3.9 µM
same,EC50,"HepG2 cells [2]; HepG2, 24 h",51.9 ± 3.8 µM
